# Measurements published in patent US7235264B2, “Cerebral protection with a gas comprising xenon” (Air Liquide Deutschland GmbH, priority 2002, dated 2007).
# “Also recorded” adds a separate entry of the source.
# Experiments:
# [1] = e.g. long-term ventilation, current state of knowledge, cited from earlier work
# brain = assay: administration of xenon (inhalation): cerebral perfusion and oxygen supply in the brain; type: in vivo
smiles,measurement,setting,value
[Xe] [xenon],side effects,[1]; prolonged administration,no side effects
same,accumulation in the body,[1]; use as medicament,no accumulation
same,metabolites formed in the body,[1]; use as medicament,no metabolites are formed
same,cerebral perfusion,"brain; administered xenon, available results",improvement in cerebral perfusion
same,oxygen supply in the brain,"brain; administration of xenon or xenon-containing gases, in particular by inhalation",increased; also recorded: improved
same,cerebral autoregulation,brain; preliminary results,maintained or improved
same,"vasodilator action, especially capillary vasodilator in the capillary vascular system",brain; preliminary results,acts as vasodilator
